Where a SMILES comes first, the peptide text is derived from it. [ ]: non-standard residue; d: D form. The star is where a group is joined. dPhg = N[C@@H](C(=O)O)c1ccccc1; Agmatine = N=C(N)NCCCCN*; Bn = c1ccc(C*)cc1
Assays:
Human Thrombin [1] = molecular target: T1, Human Thrombin (Homo sapiens, UniProt P00734); assay: Fibrinogen-thrombin reaction: amount required to double the thrombin time of fibrinogen; type: biochemical; conditions: for Amount of agmatine derivative required to double the thrombin-time of fibrinogen: bovine fibrinogen, human thrombin 5 NIH Unit/ml, pH 7.4, thrombin time without derivative 15 seconds; for relative activity: related to tosyl-agmatine, taken as unity
T1 construct: 0.1 ml US Standard Human Thrombin 5 NIH Unit/ml
Source text: It is known that the simple acyl derivatives of agmatine (1-amino-4-guanidino-butane), as for instance tosyl-agmatine (1-[p-toluene-sulfonylamido]-4-guanidino-butane), have the ability to inhibit the proteolytic reactions of both tripsin and thrombin (Lorand and Rule: Nature, 190, 722, 1961; Rule and Lorand: Biochim. Biophys. Acta, 81, 130, 1964). According to these authors tosyl-agmatine delays the clotting of blood plasma, and also is assumed to suppress the fibrinogen-thrombin reaction. In our own experiments, however, the fibrinogen-thrombin reaction was affected by tosyl-agmatine to a negligible degree: 0.7 mg of tosyl-agmatine is required to double (from 15 sec to 30 sec) the thrombin time of 1 ml of a solution containing 1.25 mg of fibrinogen and 1.25 NIH units of thrombin ("Minimum Requirements of Dried Thrombin", 2nd rev. Div. Biol. Conf. Natl. Inst. Health, Bethesda, Md., United States 1946).
The potency of the substances is defined by the amount of the compound required to double the thrombin time of fibrinogen. Furthermore, the relative potency of the novel agmatine derivatives related to tosyl-agmatine (the activity of the last-mentioned drug is taken as unity) is listed, too.
The potency of the compounds was assayed in the following system:
0.2 ml of 0.5 percent bovine fibrinogen in 0.9 percent NaCl solution,
0.1 ml of tris-(hydroxymethyl)-methylamine hydrochloride buffer solution (pH=7.4) containing the agmatine derivative, and
0.1 ml US Standard Human Thrombin 5 NIH Unit/ml.
The thrombin time of the system devoid of agmatine derivative is 15 seconds.

Human Thrombin [2] = molecular target: T1, Human Thrombin; assay: Relative thrombin-time in isolated fibrinogen-thrombin reaction mixture A; type: biochemical; conditions: system A, without inhibitor = 1
Experimental: (§1) In in vitro trials the effect of D-Phe-Pro-Agm.2HCl (in formula I, X is a D-phenylalanine moiety, B is chloride ion and n=2) and heparin was studied in an isolated system, in a fibrinogen-thrombin reaction mixture A and in human citrate plasma B:
0.2 ml of 0.5 percent bovine fibrinogen in 0.9 percent saline solution,
0.1 ml US Standard Human Thrombin 10 NIH Unit/ml.

Human Thrombin [3] = molecular target: T1, Human Thrombin; assay: Relative thrombin-time in human citrate plasma B; type: biochemical; conditions: system B human citrate plasma, without inhibitor = 1
Experimental: as §1
0.2 ml of human citrate plasma
0.1 ml US Standard Human Thrombin 10 NIH U/ml.

gray rabbits = assay: In vivo prothrombin activity of the blood assayed according to Quick; design: species or system rabbit
Experimental: In in vivo trials gray rabbits (2 to 3 kg) were administered subcutaneously:
b. 10 mg/kg D-Phe-Pro-Agm.2HCl, or
c. 5 mg/kg heparin and 10 mg/kg D-Phe-Pro-Agm.2HCl.

[4] = D-Phe-Pro-Agm.2HCl 0.10 μg/ml reaction mixture
[5] = heparin 0.05 μg/ml reaction mixture
[6] = heparin 0.10 μg/ml reaction mixture
[7] = heparin 0.20 μg/ml reaction mixture

## ClOCl.N=C(N)NCCCCNC(=O)[C@@H]1CCCN1C(=O)[C@H](N)Cc1ccccc1 [H--D--Phe--Pro--Agm, D-Phenylalanyl-L-prolyl-agmatine-dichlorohydrate] (H-[dF]-Pro-Agmatine)
Human Thrombin [1]
  anticoagulant potency (in words): extremely high activity
  Amount of agmatine derivative required to double the thrombin-time of fibrinogen: 0.12 μ/reaction mixture
  relative activity: 2333
Human Thrombin [2]; [4]
  Relative thrombin-time, alone: 2.5
Human Thrombin [2]; D-Phe-Pro-Agm.2HCl 0.20 μg/ml reaction mixture
  Relative thrombin-time, alone: 4.0
Human Thrombin [3]; D-Phe-Pro-Agm.2HCl 0.05 μg/ml reaction mixture
  Relative thrombin-time, alone: 2.2
Human Thrombin [3]; [4]
  Relative thrombin-time, alone: 3.4
Gray rabbits; 10 mg/kg D-Phe-Pro-Agm.2HCl subcutaneously
  prothrombin activity of the blood: practically unaltered

## ClOCl.N=C(N)NCCCCNC(=O)[C@@H]1CCCN1C(=O)[C@H](N)c1ccccc1 [H--D--Phg--Pro--Agm, D-Phenylglycyl-L-prolyl-agmatine-dichlorohydrate] (H-[dPhg]-Pro-Agmatine)
Human Thrombin [1]
  Amount of agmatine derivative required to double the thrombin-time of fibrinogen: 1.4 μ/reaction mixture
  relative activity: 200

## ClOCl.N=C(N)NCCCCNC(=O)[C@@H]1CCCN1C(=O)[C@H](N)COCc1ccccc1 [H--D--Ser(Bzl)--Pro--Agm, O-Benzyl-D-seryl-L-prolyl-agmatine-dichlorohydrate] (H-[dS](Bn)-Pro-Agmatine)
Human Thrombin [1]
  Amount of agmatine derivative required to double the thrombin-time of fibrinogen: 0.7 μ/reaction mixture
  relative activity: 400

## Cc1ccc(S(=O)(=O)NCCCCNC(=N)N)cc1 [Tosyl--agmatine, 1-[p-toluene-sulfonylamido]-4-guanidino-butane, reference compound]
Human Thrombin [1]; 1 ml of a solution containing 1.25 mg of fibrinogen and 1.25 NIH units of thrombin
  amount required to double (from 15 sec to 30 sec) the thrombin time: 0.7 mg
Human Thrombin [1]
  Amount of agmatine derivative required to double the thrombin-time of fibrinogen: 280 μ/reaction mixture
  relative activity: 1

## Heparin
Human Thrombin [2]; [5]
  Relative thrombin-time, alone: 1.1
Human Thrombin [2]; [6]
  Relative thrombin-time, alone: 1.5
Human Thrombin [2]; [7]
  Relative thrombin-time, alone: 2.0
Human Thrombin [3]; [5]
  Relative thrombin-time, alone: 1.0
Human Thrombin [3]; [6]
  Relative thrombin-time, alone: 2.0
Human Thrombin [3]; [7]
  Relative thrombin-time, alone: 3.8
Gray rabbits; 5 mg/kg heparin subcutaneously
  prothrombin activity of the blood: practically unaltered

— patent US4346078A, “Novel anticoagulant agmatine derivatives and process for the preparation thereof” (Richter Gedeon Vegyeszeti Gyar Rt., priority 1980, dated 1982)
